Measurements from US20220401619A1, “A COLLAGEN SCAFFOLD” (ROYAL COLLEGE OF SURGEONS IN IRELAND, priority 2019, published 2022).

Assay: Antibiotic release profile from scaffolds over 60 days
Assay type: physicochemical
Excerpt: As shown in FIG. 3(A), in the dual-layer scaffold structure incorporating crosslinked and directly incorporated antibiotic produced as described above, the porous scaffold structure necessary for efficient tissue regeneration was maintained. In addition, the porosity (>98%) and mean pore size, essential for optimal proliferation and differentiation of osteoblasts during bone regeneration, were not compromised after the loading of the drug into the collagen structure. Depending on the incorporation method, different release kinetics of the antibiotic from the materials were obtained. […] At day 10, approximately 90% of the teicoplanin was released when it was directly loaded into the slurry during the CHA scaffold fabrication.

## teicoplanin
Day 10, directly loaded into the slurry during CHA scaffold fabrication
  teicoplanin released: approximately 90%
Day 60, chemically attached (crosslinked) to scaffold
  teicoplanin released: approximately 11%
